According to patent US11801242B2, “Compositions and methods for adjuvant cancer therapeutics” (DUKE UNIVERSITY, priority 2018, dated 2023):

Tests used:
[1] = biological target: T1, chimeric REV1 CTD protein (Mus musculus, UniProt Q920Q2); assay: Isothermal titration calorimetry; format: binding; conditions: 25° C.
T1 construct: the mouse REV1 CTD (F1150-T1249); His10-GB1 (TEV site) (N, cleaved yes); made in house; host or cells: E. coli BL21 Star (DE3)
T1 sequence (Q920Q2 1150-1249): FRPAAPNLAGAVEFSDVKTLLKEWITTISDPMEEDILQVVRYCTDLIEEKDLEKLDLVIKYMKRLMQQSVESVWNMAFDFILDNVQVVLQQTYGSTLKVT
Experimental: Isothermal titration calorimetry measurements were carried out using a MicroCal VP-ITC instrument at 25° C., with the chimeric REV1 CTD protein (300 μM) in the syringe and compound (15 μM) in the cell. Compounds were initially dissolved in 50% MPD. Protein and compound samples were diluted in a buffer containing 50 mM HEPES pH 7.5, 50 mM KCl, 2 mM TCEP, 2% DMSO and 0.1% MPD. Microcal Origin 7 software was used to analyze the data.

[2] = tested on: REV1 CTD-REV7 interaction; assay: ELISA assay probing the REV1 CTD-REV7 interaction; format: binding, mouse; conditions: ratio of test compound IC50 to RE01 IC50
Experimental: The ELISA assay for probing the REV1 CTD-REV7 interaction was carried out by immobilizing 50 nM His8-tagged REV7/3 in 200 μL phosphate-buffered saline (PBS, Gibco) containing 0.2% BSA in a Ni-NTA coated 96-well plate (HisSorb, Qiagen) for 30 minutes. Unbound His8-tagged REV7/3 was removed by washing the wells four times with PBS containing 0.05% Tween-20. […] After incubation for 30 minutes, the wells were washed four times with PBS containing 0.05% Tween-20 to remove the unbound FLAG-tagged POL κ RIR-REV1 CTD. A solution of the anti-FLAG horseradish peroxidase (HRP)-conjugated antibody (Sigma-Aldrich) in PBS containing 0.2% BSA was then added to the wells. After incubating for 1 hour, the antibody was washed off four times with PBS containing 0.05% Tween-20. The 3,3′,5,5′-tetramethylbenzedine (TMB) substrate (SureBlue TMB, Seracare) was added to the wells. After incubation of 20-30 minutes, the reaction was quenched with 1 M HCl. A SpectraMax plate reader (Molecular Devices) was used to measure absorbance at 450 nm.

A375 cells = assay: qRT-PCR of p21 mRNA; format: cell-based, human; conditions: cisplatin 1 μM alone
Experimental: Total RNA was isolated by using the RNeasy Mini kit (Qiagen) from cells treated with RE01 (1.5 μM), cisplatin (1 μM) and a combination of both RE01 (1.5 μM) and cisplatin (1 μM). 5 ng of RNA from each sample was mixed with 10 μl of Applied Biosystems™ PowerUp™ SYBR™ Green Master Mix (ThermoFisher), 1 μl of MultiScribe™ Reverse Transcriptase (ThermoFisher), 0.1 μl of RNaseOUT™ Recombinant Ribonuclease Inhibitor and 5.9 μl of RNase-free water, and run in a one-step qRT-PCR reaction. Each reaction was run in triplicate. Primers used were: p21 F 5′-[…]-3′ (SEQ ID NO: 9), p21 R 5-CGGCGTTTGGAGTGG TAGAAA-3′ (SEQ ID NO: 10); GAPDH F 5′-[…]-3′ (SEQ ID NO: 11), GAPDH R 5′-[…]-3′ (SEQ ID NO: 12).

Structure (SMILES)	Relative IC50 Ratio [2]	also measured
CC(C)CC(=O)c1c(N2CCOCC2)[nH]c2c(Cl)ccc([N+](=O)[O-])c2c1=O [RE07, 8-chloro-3-(3-methylbutanoyl)-2-morpholino-5-nitroquinolin-4(1H)-one]		REV1 CTD binding [1]: abolished the REV1 CTD binding
CC(C)CC(=O)c1c(Nc2ccc(Cl)cc2Cl)[nH]c2cc([N+](=O)[O-])ccc2c1=O [RE35, 2-((2,4-dichlorophenyl)amino)-3-(3-methylbutanoyl)-7-nitroquinolin-4(1H)-one]	A (A represents a ratio of test compound IC50 to RE01 IC50 of less than 0.8)	
Cc1ccc([N+](=O)[O-])c2c(=O)c(C(=O)CC(C)C)c(Nc3ccc(Cl)cc3Cl)[nH]c12 [RE36, 2-((2,4-dichlorophenyl)amino)-8-methyl-3-(3-methylbutanoyl)-5-nitroquinolin-4(1H)-one]	C (C represents a ratio of test compound IC50 to RE01 IC50 between 1.5-10)	
COc1ccc([N+](=O)[O-])c2c(=O)c(C(=O)CC(C)C)c(Nc3ccc(Cl)cc3Cl)[nH]c12 [RE37, 2-((2,4-dichlorophenyl)amino)-8-methoxy-3-(3-methylbutanoyl)-5-nitroquinolin-4(1H)-one]	C (C represents a ratio of test compound IC50 to RE01 IC50 between 1.5-10)	
CC(C)CC(=O)c1c(Nc2ccc(Cl)cc2Cl)[nH]c2c(F)ccc([N+](=O)[O-])c2c1=O [RE38, 2-((2,4-dichlorophenyl)amino)-8-fluoro-3-(3-methylbutanoyl)-5-nitroquinolin-4(1H)-one]	B (B represents a ratio of test compound IC50 so to RE1 IC50 between 0.8 and 1.5)	
CC(C)CC(=O)c1c(Nc2ccc(Cl)cc2Cl)[nH]c2c(Br)ccc([N+](=O)[O-])c2c1=O [RE39, 8-bromo-2-((2,4-dichlorophenyl)amino)-3-(3-methylbutanoyl)-5-nitroquinolin-4(1H)-one]	B (B represents a ratio of test compound IC50 so to RE1 IC50 between 0.8 and 1.5)	
N.N.[Cl][Pt][Cl] [cisplatin, cis-diammineplatinum(II) dichloride, reference compound]		levels of the p21 biomarker (A375 cells): elevated levels
